Tests used:
Format in all cases: biochemical
[1] = target: T1, CYP1B1 (Homo sapiens, UniProt Q16678); test: fluorometric 7-ethoxyresorufin O-deethylation with recombinant CYP1B1 bactosomes
T1 sequence (Q16678 1-543): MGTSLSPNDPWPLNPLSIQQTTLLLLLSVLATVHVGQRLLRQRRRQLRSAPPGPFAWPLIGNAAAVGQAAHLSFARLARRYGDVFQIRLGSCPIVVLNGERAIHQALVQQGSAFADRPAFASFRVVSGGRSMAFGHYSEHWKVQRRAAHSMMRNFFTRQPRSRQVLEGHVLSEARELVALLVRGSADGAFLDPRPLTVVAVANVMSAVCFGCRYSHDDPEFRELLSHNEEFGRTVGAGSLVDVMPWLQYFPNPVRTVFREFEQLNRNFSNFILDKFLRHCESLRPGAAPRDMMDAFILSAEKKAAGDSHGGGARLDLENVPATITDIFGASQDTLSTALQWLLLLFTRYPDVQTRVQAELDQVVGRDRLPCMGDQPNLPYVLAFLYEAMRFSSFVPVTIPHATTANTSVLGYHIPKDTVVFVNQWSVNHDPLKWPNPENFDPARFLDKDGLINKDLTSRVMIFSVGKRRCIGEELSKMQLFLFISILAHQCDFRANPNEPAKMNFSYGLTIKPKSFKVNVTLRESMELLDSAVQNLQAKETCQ

[2] = target: T2, cytochrome P450 1A1 (Homo sapiens, UniProt P04798); test: fluorometric CEC O-deethylation with recombinant CYP1A1 bactosomes
T2 sequence (P04798 1-512): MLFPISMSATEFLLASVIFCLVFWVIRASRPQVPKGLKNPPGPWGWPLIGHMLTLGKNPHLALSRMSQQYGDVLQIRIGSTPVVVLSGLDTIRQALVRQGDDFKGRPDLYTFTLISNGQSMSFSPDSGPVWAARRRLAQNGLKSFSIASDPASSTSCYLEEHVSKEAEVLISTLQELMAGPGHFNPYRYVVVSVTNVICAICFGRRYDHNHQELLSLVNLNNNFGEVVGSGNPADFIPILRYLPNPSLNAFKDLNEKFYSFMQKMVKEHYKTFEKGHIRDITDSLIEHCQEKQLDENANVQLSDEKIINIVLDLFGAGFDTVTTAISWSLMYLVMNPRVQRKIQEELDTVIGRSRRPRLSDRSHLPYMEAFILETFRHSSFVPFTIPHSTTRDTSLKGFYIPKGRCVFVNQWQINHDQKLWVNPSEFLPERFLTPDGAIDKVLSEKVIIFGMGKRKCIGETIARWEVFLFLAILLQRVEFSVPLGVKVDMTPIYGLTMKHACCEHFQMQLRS

[3] = target: T2, cytochrome P450 1A1; test: fluorometric O-deethylation by recombinant CYP1A1 bactosomes; details: cited from earlier work

| SMILES | IC50 [1] [µM] | Ki [2] [µM] | Km [3] [µM] |
| --- | --- | --- | --- |
| c1ccc(CSSSCc2ccccc2)cc1 [DTS, dibenzyl trisulfide] | 1.7 ± 0.3 | 4.55 ± 0.37 | – |
| CCOc1ccc2cc(C#N)c(=O)oc2c1 [CEC, 3-cyano-7-ethoxycoumarin] | – | – | 0.5 |
